In assay [1] the target is Voltage-gated inwardly rectifying potassium channel KCNH2 (Homo sapiens, UniProt Q12809). Kind of assay: Inhibition of human ERG by patch clamp method. On the technique in general: The patch-clamp technique gives a direct electrical read-out from membranes.
Assay [2] is described as follows: Inhibition of calcium channel L type dihydropyridine binding site at 1 uM.
The target in assay [3] is T1, Alpha-2A adrenergic receptor (Homo sapiens) (UniProt P08913).
T1 sequence (whole entry): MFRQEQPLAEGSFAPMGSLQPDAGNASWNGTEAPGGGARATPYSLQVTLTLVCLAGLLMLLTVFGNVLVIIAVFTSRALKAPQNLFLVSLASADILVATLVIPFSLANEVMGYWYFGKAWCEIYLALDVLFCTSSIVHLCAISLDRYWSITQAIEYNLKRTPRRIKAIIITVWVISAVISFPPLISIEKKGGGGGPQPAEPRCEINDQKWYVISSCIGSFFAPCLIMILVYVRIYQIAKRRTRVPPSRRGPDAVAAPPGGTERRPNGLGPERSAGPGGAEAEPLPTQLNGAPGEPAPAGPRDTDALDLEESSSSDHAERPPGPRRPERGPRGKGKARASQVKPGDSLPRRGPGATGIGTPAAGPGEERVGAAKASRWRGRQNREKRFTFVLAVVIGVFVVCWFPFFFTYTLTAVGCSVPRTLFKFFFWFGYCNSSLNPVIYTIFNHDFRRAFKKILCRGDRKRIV
The experiment in a line: Inhibition of adrenergic alpha2A receptor at 1 uM.

Assay [4] concerns the target T2, Alpha-1A adrenergic receptor (Homo sapiens) (UniProt P35348).
T2 sequence (whole entry): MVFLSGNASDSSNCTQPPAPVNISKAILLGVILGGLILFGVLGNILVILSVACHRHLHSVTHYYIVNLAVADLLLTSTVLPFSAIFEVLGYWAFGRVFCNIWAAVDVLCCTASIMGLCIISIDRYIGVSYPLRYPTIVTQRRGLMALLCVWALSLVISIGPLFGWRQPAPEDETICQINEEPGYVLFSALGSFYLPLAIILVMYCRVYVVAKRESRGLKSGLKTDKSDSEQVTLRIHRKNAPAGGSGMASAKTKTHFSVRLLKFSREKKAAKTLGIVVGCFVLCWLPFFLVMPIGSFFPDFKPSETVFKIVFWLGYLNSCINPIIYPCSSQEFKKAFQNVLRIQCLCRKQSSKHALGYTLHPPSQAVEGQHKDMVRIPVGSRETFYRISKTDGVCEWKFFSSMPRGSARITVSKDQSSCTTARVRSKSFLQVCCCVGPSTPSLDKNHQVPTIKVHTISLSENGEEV
The experiment in a line: Inhibition of adrenergic alpha1A receptor at 1 uM.

Assay [5] in a line: Inhibition of phencyclidine receptor at 1 uM.
Assay [6] can be described thus: Selectivity for human glucocorticoid receptor over ERalpha.
Assay [7] deals with Sigma non-opioid intracellular receptor 1 (Homo sapiens) (UniProt Q99720). Kind of assay: Inhibition of sigma 1 receptor at 1 uM.
For assay [8], the target named is T3, Adenosine receptor A1 (Homo sapiens) (UniProt P30542).
T3 sequence (whole entry): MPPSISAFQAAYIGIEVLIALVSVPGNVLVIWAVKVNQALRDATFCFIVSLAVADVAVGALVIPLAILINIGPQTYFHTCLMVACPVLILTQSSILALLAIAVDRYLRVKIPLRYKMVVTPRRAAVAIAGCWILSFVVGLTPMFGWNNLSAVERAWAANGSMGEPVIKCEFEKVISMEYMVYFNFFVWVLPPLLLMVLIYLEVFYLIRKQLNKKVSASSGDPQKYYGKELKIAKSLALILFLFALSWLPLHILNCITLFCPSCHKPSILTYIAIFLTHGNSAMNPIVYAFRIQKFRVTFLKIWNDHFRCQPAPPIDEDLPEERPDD
Kind of assay: Inhibition of adenosine A1 receptor at 1 uM.

Assay [9] can be described thus: Inhibition of GABAA receptor agonist site at 1 uM. Format: functional.
Assay [10] concerns the target Beta-2 adrenergic receptor (Homo sapiens) (UniProt P07550). The experiment in a line: Inhibition of adrenergic beta2 receptor at 1 uM.

Experimental findings from ChEMBL document CHEMBL1157802, “5-Functionalized indazoles as glucocorticoid receptor agonists” (Bioorg Med Chem Lett, 2010) are described below.

The structures appear in SMILES notation. Some results are limits rather than exact numbers.

Sequence of Sigma non-opioid intracellular receptor 1 (Homo sapiens) (Q99720 whole entry): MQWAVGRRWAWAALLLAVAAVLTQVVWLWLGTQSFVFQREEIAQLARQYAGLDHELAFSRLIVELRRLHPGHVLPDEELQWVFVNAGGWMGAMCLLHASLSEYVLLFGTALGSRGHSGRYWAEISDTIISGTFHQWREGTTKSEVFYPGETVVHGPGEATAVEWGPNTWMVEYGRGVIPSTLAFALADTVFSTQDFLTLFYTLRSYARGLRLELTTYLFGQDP
Sequence of Beta-2 adrenergic receptor (Homo sapiens) (P07550 whole entry, looked up): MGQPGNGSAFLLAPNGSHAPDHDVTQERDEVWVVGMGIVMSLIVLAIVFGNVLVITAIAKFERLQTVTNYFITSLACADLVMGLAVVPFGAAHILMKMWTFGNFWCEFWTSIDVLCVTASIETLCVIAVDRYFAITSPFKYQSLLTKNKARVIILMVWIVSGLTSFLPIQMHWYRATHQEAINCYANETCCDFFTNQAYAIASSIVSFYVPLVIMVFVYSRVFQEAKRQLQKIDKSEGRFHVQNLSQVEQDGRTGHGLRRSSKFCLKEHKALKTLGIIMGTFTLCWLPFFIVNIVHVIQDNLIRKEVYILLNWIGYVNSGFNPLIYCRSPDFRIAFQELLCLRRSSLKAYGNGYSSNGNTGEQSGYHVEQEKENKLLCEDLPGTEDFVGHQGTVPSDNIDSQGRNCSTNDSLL
Sequence of Voltage-gated inwardly rectifying potassium channel KCNH2 (Q12809 whole entry): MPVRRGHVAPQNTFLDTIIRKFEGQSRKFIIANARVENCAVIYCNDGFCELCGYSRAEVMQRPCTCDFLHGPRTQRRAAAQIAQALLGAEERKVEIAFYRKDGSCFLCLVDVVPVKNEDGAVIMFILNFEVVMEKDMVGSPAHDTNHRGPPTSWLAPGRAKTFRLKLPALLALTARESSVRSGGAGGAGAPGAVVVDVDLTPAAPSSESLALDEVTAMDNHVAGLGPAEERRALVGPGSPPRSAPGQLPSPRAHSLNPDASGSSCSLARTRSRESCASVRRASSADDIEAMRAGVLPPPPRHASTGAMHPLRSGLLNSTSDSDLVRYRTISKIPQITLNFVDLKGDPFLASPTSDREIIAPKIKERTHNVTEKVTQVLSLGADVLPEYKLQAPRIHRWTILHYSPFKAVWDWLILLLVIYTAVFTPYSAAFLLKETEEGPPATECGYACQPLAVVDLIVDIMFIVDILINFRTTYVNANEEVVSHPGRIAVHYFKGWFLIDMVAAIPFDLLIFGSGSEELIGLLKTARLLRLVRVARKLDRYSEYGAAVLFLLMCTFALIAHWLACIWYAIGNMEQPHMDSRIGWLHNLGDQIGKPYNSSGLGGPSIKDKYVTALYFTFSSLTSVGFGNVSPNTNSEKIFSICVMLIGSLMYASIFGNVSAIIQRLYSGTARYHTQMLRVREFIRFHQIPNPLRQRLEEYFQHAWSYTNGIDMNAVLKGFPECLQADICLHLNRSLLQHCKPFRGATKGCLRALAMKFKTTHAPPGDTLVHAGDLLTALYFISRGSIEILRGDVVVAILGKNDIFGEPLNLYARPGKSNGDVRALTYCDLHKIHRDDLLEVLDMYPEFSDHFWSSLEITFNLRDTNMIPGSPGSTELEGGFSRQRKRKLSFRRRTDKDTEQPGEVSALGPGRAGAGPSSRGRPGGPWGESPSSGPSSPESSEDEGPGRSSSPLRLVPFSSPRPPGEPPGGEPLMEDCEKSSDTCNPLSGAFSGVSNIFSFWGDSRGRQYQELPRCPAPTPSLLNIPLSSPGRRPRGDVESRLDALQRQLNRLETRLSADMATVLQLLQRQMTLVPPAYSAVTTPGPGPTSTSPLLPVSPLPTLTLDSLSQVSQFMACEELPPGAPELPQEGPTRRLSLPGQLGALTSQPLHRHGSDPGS

What is called IC50 is the point on the concentration scale where inhibition reaches its midpoint. The low end stands for greater potency in that assay, the high end for weaker potency in that assay. What is called inhibition is the percentage by which the read-out fell short of the control. For `OC(c1ccnc(Cl)c1)(c1ccc2c(cnn2-c2ccc(F)cc2)c1)C(F)(F)F` (single isomer, unassigned; (-)), the IC50 in assay [1] was above 10 µM. The inhibition in [2], in [3], in [4], in assay [5], in assay [7] and in assay [8] was below 50% in each case. Moreover, the inhibition in assay [9] and in [10] was below 50% each time. Besides, the Ratio in assay [6] is above 1000.
`Cc1cc(C(O)(c2ccc3c(cnn3-c3ccc(F)cc3)c2)C(F)(F)F)ccc1F` (single isomer, unassigned; (-)) showed an IC50 in [1] above 10 µM. Also, the inhibition in [2], in [3], in assay [4], in assay [5], in [7] and in assay [8] was below 50% throughout. Further, the inhibition in assay [9] and in [10] was below 50% in each case. Besides, the Ratio in [6] is above 1000.
